As usually defined, the IC50 is the midpoint of a concentration-inhibition curve.

The record followed here is patent publication US20240116985A1, “STAPLED PEPTIDES AND METHODS THEREOF” (priority 2020, published 2024).

Each structure is given as a SMILES string.

Experiment [1] deals with T1, full-length beta-Catenin (Uniprot ID P35222) (Homo sapiens, UniProt P35222).
T1 construct: 10 nM full-length beta-Catenin (Uniprot ID P35222)
T1 sequence (P35222 1-781): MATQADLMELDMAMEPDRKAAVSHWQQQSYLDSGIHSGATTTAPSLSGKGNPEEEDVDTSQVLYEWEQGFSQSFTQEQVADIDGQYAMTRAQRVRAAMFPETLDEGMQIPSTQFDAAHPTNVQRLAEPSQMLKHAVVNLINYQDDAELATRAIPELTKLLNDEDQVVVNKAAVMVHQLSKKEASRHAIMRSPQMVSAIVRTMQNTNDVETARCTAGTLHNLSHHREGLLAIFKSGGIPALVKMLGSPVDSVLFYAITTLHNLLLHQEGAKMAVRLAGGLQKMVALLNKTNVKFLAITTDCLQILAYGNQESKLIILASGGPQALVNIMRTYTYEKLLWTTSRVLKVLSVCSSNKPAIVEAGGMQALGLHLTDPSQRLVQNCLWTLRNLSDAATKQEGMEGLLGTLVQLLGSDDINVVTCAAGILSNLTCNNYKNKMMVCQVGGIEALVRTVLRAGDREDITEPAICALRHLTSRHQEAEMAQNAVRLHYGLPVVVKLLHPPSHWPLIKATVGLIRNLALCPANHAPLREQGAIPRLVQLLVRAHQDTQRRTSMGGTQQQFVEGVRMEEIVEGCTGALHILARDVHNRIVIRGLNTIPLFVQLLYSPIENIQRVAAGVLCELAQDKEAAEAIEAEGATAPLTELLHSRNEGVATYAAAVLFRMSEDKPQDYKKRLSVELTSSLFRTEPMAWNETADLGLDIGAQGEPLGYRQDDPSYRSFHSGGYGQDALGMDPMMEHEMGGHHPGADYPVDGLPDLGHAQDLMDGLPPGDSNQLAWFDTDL
Description: Fluorescence polarization IC50 (beta-catenin / 5FAM-TCF4 10-53 competition). The experiment is classed as binding. Conditions: fluorescence polarization; read-out: beta-Catenin FP IC50.

Experiment [2] deals with T2, beta-catenin/TCF4 engagement (Homo sapiens, UniProt P35222).
T2 construct: expressed in transfected cells; host or cells: HEK293
T2 sequence (P35222 1-781): T1 sequence (P35222 1-781)
The experiment in a line: Nano-BRET target engagement assay (B-cat-Halo & TCF4-Luc in HEK293 cells). The experiment is classed as cell-based. Conditions: absolute IC50; read-out: NanoBRET Abs IC50. Background: In BRET a luciferase serves as donor, and the signal depends on an acceptor being close.

As for `CC(=O)N1CCC[C@]12CC=CCCCC1(CCCC=CCCCOC(=O)N3CC[C@@](C(=O)N[C@@H](Cc4ccccc4C(F)(F)F)C(=O)N[C@@H](Cc4csc5ccccc45)C(=O)N[C@@H](CCC(=O)N(C)C)C(N)=O)(C3)NC(=O)[C@H](CCC(=O)N3CCOCC3)NC(=O)[C@H](Cc3ccccc3)NC(=O)[C@H](C)NC(=O)[C@H](C)NC(=O)[C@H](Cc3cccc(C(=O)O)c3)NC(=O)[C@H](CC(=O)O)NC1=O)NC(=O)[C@H](CC(C)(C)C)NC(=O)[C@H](CC(=O)O)NC2=O` (stereo partly drawn) [I-2537, Ac-PL3-Asp-Npg-B5-Asp-3COOHF-Ala-Ala-Phe-MorphGln-PyrS2-2F3MeF-BztA-Me2Gln-NH2], the results for the 50% inhibitory concentration (IC50) in experiment [1] and in experiment [2] were 11 nM and 2900 nM, respectively.
In the same order, the values of `CC(=O)N1CCC[C@]12CC=CCCCC1(CCCC=CCCCOC(=O)N3CC[C@@](C(=O)N[C@@H](Cc4ccccc4C(F)(F)F)C(=O)N[C@@H](Cc4csc5ccccc45)C(=O)N[C@@H](CCC(=O)N(C)C)C(N)=O)(C3)NC(=O)[C@H](CCC(=O)N3CCOCC3)NC(=O)[C@H](Cc3ccccc3)NC(=O)[C@H](C)NC(=O)[C@H](C)NC(=O)[C@H](Cc3cccc(C(=O)O)c3)NC(=O)[C@H](CC(=O)O)NC1=O)NC(=O)[C@H](CC(C)(C)C)NC(=O)[C@H](CC(=O)O)NC2=O` (stereo partly drawn) [I-2538, Ac-PL3-Asp-Npg-B5-Asp-3COOHF-Ala-Ala-Phe-MorphGln-PyrS2-2F3MeF-BztA-Me2Gln-NH2] are 14 nM and 3500 nM.
Consider `CC(=O)NCCCC[C@@H]1NC(=O)[C@H](Cc2ccccc2)NC(=O)[C@H](C)NC(=O)[C@H](C)NC(=O)[C@H](Cc2cccc(C(=O)O)c2)NC(=O)[C@H](CC(=O)O)NC(=O)C2(CCCC=CCCCOC(=O)N3CC[C@@](C(=O)N[C@@H](Cc4ccccc4C(F)(F)F)C(=O)N[C@@H](Cc4csc5ccccc45)C(=O)N[C@@H](CCC(=O)N(C)C)C(N)=O)(C3)NC1=O)CCCC=CC[C@]1(CCCN1C(C)=O)C(=O)N[C@@H](CC(=O)O)C(=O)N[C@@H](CC(C)(C)C)C(=O)N2` (stereo partly drawn) [I-2539, Ac-PL3-Asp-Npg-B5-Asp-3COOHF-Ala-Ala-Phe-AcLys-PyrS2-2F3MeF-BztA-Me2Gln-NH2], for which the IC50 in experiment [1] stood at 11 nM; in experiment [2] it was 3600 nM.
For `CC(=O)NCCCC[C@@H]1NC(=O)[C@H](Cc2ccccc2)NC(=O)[C@H](C)NC(=O)[C@H](C)NC(=O)[C@H](Cc2cccc(C(=O)O)c2)NC(=O)[C@H](CC(=O)O)NC(=O)C2(CCCC=CCCCOC(=O)N3CC[C@@](C(=O)N[C@@H](Cc4ccccc4C(F)(F)F)C(=O)N[C@@H](Cc4csc5ccccc45)C(=O)N[C@@H](CCC(=O)N(C)C)C(N)=O)(C3)NC1=O)CCCC=CC[C@]1(CCCN1C(C)=O)C(=O)N[C@@H](CC(=O)O)C(=O)N[C@@H](CC(C)(C)C)C(=O)N2` (stereo partly drawn) [I-2540, Ac-PL3-Asp-Npg-B5-Asp-3COOHF-Ala-Ala-Phe-AcLys-PyrS2-2F3MeF-BztA-Me2Gln-NH2], in that order: 14 nM and 3500 nM.
As for `CC(=O)N1CCC[C@]12CC=CCCCC1(CCCC=CCCCOC(=O)N3CC[C@@](C(=O)N[C@@H](Cc4ccccc4C(F)(F)F)C(=O)N[C@@H](Cc4csc5ccccc45)C(=O)N[C@@H](CCC(=O)N4CCOCC4)C(N)=O)(C3)NC(=O)[C@H](Cc3ccccc3)NC(=O)[C@H](Cc3ccccc3)NC(=O)[C@H](C)NC(=O)[C@H](C)NC(=O)[C@H](Cc3cccc(C(=O)O)c3)NC(=O)[C@H](CC(=O)O)NC1=O)NC(=O)[C@H](CC(C)(C)C)NC(=O)[C@H](CC(=O)O)NC2=O` (stereo partly drawn) [I-2543, Ac-PL3-Asp-Npg-B5-Asp-3COOHF-Ala-Ala-Phe-Phe-PyrS2-2F3MeF-BztA-MorphGln-NH2], the results for the IC50 in experiment [1] and in experiment [2] were 37 nM and 7300 nM, respectively.
As for `CC(=O)N1CCC[C@]12CC=CCCCC1(CCCC=CCCCOC(=O)N3CC[C@@](C(=O)N[C@@H](Cc4ccccc4C(F)(F)F)C(=O)N[C@@H](Cc4csc5ccccc45)C(=O)N[C@@H](CCC(=O)N4CCOCC4)C(N)=O)(C3)NC(=O)[C@H](CCC(=O)N(C)C)NC(=O)[C@H](Cc3ccccc3)NC(=O)[C@H](C)NC(=O)[C@H](C)NC(=O)[C@H](Cc3cccc(C(=O)O)c3)NC(=O)[C@H](CC(=O)O)NC1=O)NC(=O)[C@H](CC(C)(C)C)NC(=O)[C@H](CC(=O)O)NC2=O` (stereo partly drawn) [I-2544, Ac-PL3-Asp-Npg-B5-Asp-3COOHF-Ala-Ala-Phe-Me2Gln-PyrS2-2F3MeF-BztA-MorphGln-NH2], the values for the IC50 in experiment [1] and in experiment [2] were 11 nM and 4100 nM, respectively.
For `CC(=O)N1CCC[C@]12CC=CCCCC1(CCCC=CCCCOC(=O)N3CC[C@@](C(=O)N[C@@H](Cc4ccccc4C(F)(F)F)C(=O)N[C@@H](Cc4csc5ccccc45)C(=O)N[C@@H](CCC(=O)N4CCOCC4)C(N)=O)(C3)NC(=O)[C@H](CCC(=O)N(C)C)NC(=O)[C@H](Cc3ccccc3)NC(=O)[C@H](C)NC(=O)[C@H](C)NC(=O)[C@H](Cc3cccc(C(=O)O)c3)NC(=O)[C@H](CC(=O)O)NC1=O)NC(=O)[C@H](CC(C)(C)C)NC(=O)[C@H](CC(=O)O)NC2=O` (stereo partly drawn) [I-2545, Ac-PL3-Asp-Npg-B5-Asp-3COOHF-Ala-Ala-Phe-Me2Gln-PyrS2-2F3MeF-BztA-MorphGln-NH2], the IC50 in experiment [1] was 16 nM; in experiment [2] it was 4000 nM.
On to `CC(=O)N1CCC[C@]12CC=CCCCC1(CCCC=CCCCOC(=O)N3CC[C@@](C(=O)N[C@@H](Cc4ccccc4C(F)(F)F)C(=O)N[C@@H](Cc4csc5ccccc45)C(=O)N[C@@H](CCC(=O)N4CCOCC4)C(N)=O)(C3)NC(=O)[C@H](CCC(=O)N3CCOCC3)NC(=O)[C@H](Cc3ccccc3)NC(=O)[C@H](C)NC(=O)[C@H](C)NC(=O)[C@H](Cc3cccc(C(=O)O)c3)NC(=O)[C@H](CC(=O)O)NC1=O)NC(=O)[C@H](CC(C)(C)C)NC(=O)[C@H](CC(=O)O)NC2=O` (stereo partly drawn) [I-2546, Ac-PL3-Asp-Npg-B5-Asp-3COOHF-Ala-Ala-Phe-MorphGln-PyrS2-2F3MeF-BztA-MorphGln-NH2], for which the IC50 in experiment [1] was determined as 13 nM; in experiment [2], 3500 nM.
For `CC(=O)N1CCC[C@]12CC=CCCCC1(CCCC=CCCCOC(=O)N3CC[C@@](C(=O)N[C@@H](Cc4ccccc4C(F)(F)F)C(=O)N[C@@H](Cc4csc5ccccc45)C(=O)N[C@@H](CCC(=O)N4CCOCC4)C(N)=O)(C3)NC(=O)[C@H](CCC(=O)N3CCOCC3)NC(=O)[C@H](Cc3ccccc3)NC(=O)[C@H](C)NC(=O)[C@H](C)NC(=O)[C@H](Cc3cccc(C(=O)O)c3)NC(=O)[C@H](CC(=O)O)NC1=O)NC(=O)[C@H](CC(C)(C)C)NC(=O)[C@H](CC(=O)O)NC2=O` (stereo partly drawn) [I-2547, Ac-PL3-Asp-Npg-B5-Asp-3COOHF-Ala-Ala-Phe-MorphGln-PyrS2-2F3MeF-BztA-MorphGln-NH2], in that order: 13 nM and 3500 nM.
Consider `CC(=O)NCCCC[C@@H]1NC(=O)[C@H](Cc2ccccc2)NC(=O)[C@H](C)NC(=O)[C@H](C)NC(=O)[C@H](Cc2cccc(C(=O)O)c2)NC(=O)[C@H](CC(=O)O)NC(=O)C2(CCCC=CCCCOC(=O)N3CC[C@@](C(=O)N[C@@H](Cc4ccccc4C(F)(F)F)C(=O)N[C@@H](Cc4csc5ccccc45)C(=O)N[C@@H](CCC(=O)N4CCOCC4)C(N)=O)(C3)NC1=O)CCCC=CC[C@]1(CCCN1C(C)=O)C(=O)N[C@@H](CC(=O)O)C(=O)N[C@@H](CC(C)(C)C)C(=O)N2` (stereo partly drawn) [I-2548, Ac-PL3-Asp-Npg-B5-Asp-3COOHF-Ala-Ala-Phe-AcLys-PyrS2-2F3MeF-BztA-MorphGln-NH2], for which the 50% inhibitory concentration (IC50) was 11 nM in experiment [1] and 3600 nM in experiment [2].
Consider `CC(=O)NCCCC[C@@H]1NC(=O)[C@H](Cc2ccccc2)NC(=O)[C@H](C)NC(=O)[C@H](C)NC(=O)[C@H](Cc2cccc(C(=O)O)c2)NC(=O)[C@H](CC(=O)O)NC(=O)C2(CCCC=CCCCOC(=O)N3CC[C@@](C(=O)N[C@@H](Cc4ccccc4C(F)(F)F)C(=O)N[C@@H](Cc4csc5ccccc45)C(=O)N[C@@H](CCC(=O)N4CCOCC4)C(N)=O)(C3)NC1=O)CCCC=CC[C@]1(CCCN1C(C)=O)C(=O)N[C@@H](CC(=O)O)C(=O)N[C@@H](CC(C)(C)C)C(=O)N2` (stereo partly drawn) [I-2549, Ac-PL3-Asp-Npg-B5-Asp-3COOHF-Ala-Ala-Phe-AcLys-PyrS2-2F3MeF-BztA-MorphGln-NH2], for which the IC50 came to 13 nM in experiment [1] and 2500 nM in experiment [2].
In the same order, the values of `CCCC[C@@H]1NC(=O)[C@H](Cc2ccccc2)NC(=O)[C@H](C)NC(=O)C(C)(C)NC(=O)[C@H](Cc2cccc(C(=O)O)c2)NC(=O)[C@H](CC(=O)O)NC(=O)C2(CCCC=CCCCOC(=O)N3CC[C@@](C(=O)N[C@@H](Cc4ccsc4)C(=O)N[C@@H](Cc4csc5ccccc45)C(=O)N[C@@H](CCC(=O)N(C)C)C(N)=O)(C3)NC1=O)CCCC=CC[C@]1(CCCN1C(C)=O)C(=O)N[C@@H](CC(=O)O)C(=O)N[C@@H](CC(C)(C)C)C(=O)N2` (stereo partly drawn) [I-2551, Ac-PL3-Asp-Npg-B5-Asp-3COOHF-Aib-Ala-Phe-nLeu-PyrS2-3Thi-BztA-[NMe2]GlnR-NH2] are 8 nM and 9800 nM.
